Literature values, collected in patent US8193152B2 (priority 2004, dated 2012).
Read-outs that look alike come from different tables or passages of the source.

Columns and labels:
[1] = test system: PIC; details: guinea pig, in vivo
[2] = test system: thymocyte and lymphocyte
[3] = test system: mycobacterial infection; details: mouse, in vivo
[4] = in vivo
[5] = test system: mycobacteria; details: human, in vivo
[6] = test system: bone marrow cells
[7] = test system: spleen lymphocytes
[8] = in vivo; remark: listed apart in the source
[9] = test system: Machupo; details: rhesus monkey, in vivo

Compound: IFNα
- mortality [1]: No significant improvement in mortality

Compound: N[C@H](CCC(=O)N[C@@H](Cc1c[nH]c2ccccc12)C(=O)O)C(=O)O [SCV-07, γ-D-glutamyl-L-tryptophan]
- Con-A-induced thymocyte and lymphocyte proliferation [2]: increases
- IFNγ production by Con-A-induced spleen cells [3]: higher
- IL-4 production by Con-A-induced spleen cells [3]: lower
- Phagocytic activity by peritoneal macrophages [3]: markedly increased
- lung damage [3]: significantly decrease
- immunostimulatory effect [4]: strong immunostimulatory effect
- cavity healing and symptoms of tuberculosis [5]: positive effect
- drug-induced adverse effects [5]: without any drug-induced adverse effects
- incidence of mycobacteria-negative sputum cultures [5]: increased
- expression of Thy-1.2 [6]: stimulates expression
- Con-A-induced interleukin-2 (IL-2) production [7]: increases
- IL-2 receptor expression [7]: increases
- immunostimulatory effect [8]: strong immunostimulatory effect

Compound: poly (ICLC)
- Overall mortality and time to death [9]: not improved
- viremia [9]: significantly higher

Compound: NC(=O)c1ncn([C@@H]2O[C@H](CO)[C@@H](O)[C@H]2O)n1 [ribavirin, Ribavirin, reference compound]
- time to death [1]: prolonged
